In US20240199676A1, “ANTIVIRAL COMPOUNDS AND METHODS OF MAKING AND USING THE SAME” (Gilead Sciences, Inc., priority 2022, published 2024):
Where two headings read alike, the source gives them in different places.

Columns and labels:
Format in all cases: cell-based
[1] = test system: Respiratory syncytial virus recombinant with luciferase (RSV-Luc5) in HEp-2 cells; assay: HEp-2 RSV-Luc5 384-well Assay (EC50 RSVFLUC Hep2-384 v2, Ex. V); settings: human respiratory syncytial virus, HEp-2, 72 h, read-out: EC50 RSV FLuc Hep-2 384 V2 (per Ex. V)
Text: Example V: HEp-2 RSV-Luc5 384-well Assay (EC50 RSVFLUC Hep2-384 v2)
HEp-2 cell line was purchased from ATCC (Manassas, VA Cat #CCL-23) and maintained in Dulbecco's […] (DMEM) (Corning, New York, NY, Cat #15-018CM) supplemented with 10% fetal bovine serum (FBS) (Hyclone, Logan, UT, Cat #SH30071-03) and 1× Penicillin-Streptonycin-L-Glutamine (Corning, New York, NY, Cat #30-009-CI). Cells were passaged 2 times per week to maintain sub-confluent densities and were used for experiments at passage 5-20. Respiratory syncytial virus recombinant with luciferase (RSV-Luc5) (≥1 ×107 TCID50/ml) was purchased from Microbiologics (Saint Cloud, MN). Viral replication was determined in HEp-2 cells in the following manner.
(§1) Compounds are prepared in 100% DMSO in 384-well polypropylene plates (Greiner, Monroe, NC, Cat #784201) with 8 compounds per plate in grouped replicates of 4 at 10 serially diluted concentrations (1:3). The serially diluted compounds were transferred to low dead volume Echo plates (Labcyte, Sunnyvale, CA, Cat #LP-0200).
The test compounds were spotted to 384-well assay plates (Greiner, Monroe, NC, Cat#781091) at 200 nL per well. HEp-2 cells were harvested and suspended in DMEM (supplemented with 10% FBS and 1× Penicillin-Streptonycin-L-Glutamine) and seeded to the pre-spotted assay plates at 4,000 cells per well in 30 μL. RSV-Luc5 viruses were diluted in DMEM (supplemented with 10% FBS and 1× Penicillin-Streptomycin-L-Glutamine) at 200,000 Infectious Units (IU) per mL and 10 μL per well was added to the assay plates containing cells and compounds, for an MOI=0.5. The assay plates were incubated for 3 days at 37° C. and 5% CO2. At the end of incubation, One-Glo reagent (Promega, Madison, WI, Cat #E6120) was prepared. The assay plates and One-Glo reagent were equilibrated to room temperature for at least 15 minutes. 40 μL per well of One-Glo reagent was added and the plates were incubated at room temp for 15 minutes before reading the luminescence signal on an EnVision multimode plate reader (Perkin Elmer, Waltham, MA). Remdesivir was used as positive control and DMSO was used as negative control. Values were normalized to the positive and negative controls (as 0% and 100% replication, respectively) and data was fitted using non-linear regression analysis by Gilead's dose response tool. The EC50 value for each compound was then determined as the concentration reducing the viral replication by 50%.

[2] = test system: Human Rhinovirus 14 (HRV14) in H1-HeLa cells; assay: H1-HeLa HRV-CTG 384-well Assay (Ex. Y), HRV14; settings: Rhinovirus B, 96 h, read-out: EC50 H1-HeLa_HRV14_HRV-CTG 384-well Assay (per Ex Y)
Text: (§2) Example Y: H1-HeLa HRV-CTG 384-well Assay
(§3) H1-Hela cell line (ATCC, Manassas, VA, Cat #CRL-1958) was maintained in Dulbecco's […] (DMEM) (Corning, New York, NY, Cat #15-018CM) supplemented with 10% fetal bovine serum (FBS) (Hyclone, Logan, UT, Cat #SH30071-03), and 1× Penicillin-Streptomycin-L-Glutamine (Corning, New York, NY, Cat #30-009-CI). Cells were passaged 2 times per week to maintain sub-confluent densities and were used for experiments at passage 5-30. The Human Rhinovirus 1B (HRV1B) (ATCC, Manassas, VA, Cat #VR-1645) , Human Rhinovirus 14 (HRV14) (ATCC, Manassas, VA, Cat #VR-284), and Human Rhinovirus 16 (HRV16) (ATCC, Manassas, VA, Cat #BR-283) was obtained through ATCC. Viral infection was monitored by determining viability of H1-HeLa cells as described below.
as §1, with “Test molecules” for “Compounds”
(§4) The test compounds were spotted to 384-well assay plates (Greiner, Monroe, NC, Cat#781091) at 200 nL per well using an Echo acoustic dispenser (Labcyte, Sunnyvale, CA). H1-HeLa cells were harvested and suspended in DMEM (supplemented with 2% FBS and 1× Penicillin-Streptomycin-L-Glutamine) and seeded to the pre-spotted assay plates at 5,000 cells per well in 30 μL. HRV1B, HRV14, and HRV16 was diluted in DMEM (supplemented with 2% FBS and 1× Penicillin-Streptomycin-L-Glutamine) at 97.1 million Infectious Units (IU) per mL, 151 million IU per mL and 221 million IU per mL respectively. 10 μL of virus per well was added to the assay plates containing cells and compounds, for an MOI of 0.5, 1.0, and 0.25 respectively. The assay plates were incubated for 4 days at 37° C. and 5% CO2. At the end of incubation, Celltiter-Glo (Promega, Madison, WI, Cat #(Ga7573) was prepared. The assay plates and Celltiter-Glo reagent were equilibrated to room temperature for at least 15 minutes. 40 μL per well of Celltiter-Glo reagent was added and the plates were incubated at room temperature for 15 minutes before reading the luminescence signal on an EnVision multimode plate reader (Perkin Elmer, Waltham, MA). Rupintrivir was used as positive control and DMSO was used as negative control. Values were normalized to the positive and negative controls (as 0% and 100% replication, respectively) and data was fitted using non-linear regression analysis by Gilead's dose response tool. The EC50 value for each compound was defined as the concentration reducing viral replication by 50%.

[3] = test system: Human Rhinovirus 16 (HRV16) in H1-HeLa cells; assay: H1-HeLa HRV-CTG 384-well Assay (Ex. Y), HRV16; settings: Rhinovirus A, 96 h, read-out: EC50 H1-HeLa_HRV16_HRV-CTG 384-well Assay (per Ex. Y)
Text: as §2, §3
as §1, with “Test molecules” for “Compounds”
as §4

[4] = test system: Human Rhinovirus 1B (HRV1B) in H1-HeLa cells; assay: H1-HeLa HRV-CTG 384-well Assay (Ex. Y), HRV1B; settings: Rhinovirus A, 96 h, read-out: EC50 H1-HeLa_HRV1B_HRV-CTG 384-well Assay (per Ex. Y)
Text: as §2, §3
as §1, with “Test molecules” for “Compounds”
as §4

[5] = H1-HeLa cells, HRV14 MOI 1.0, 4 days, Celltiter-Glo
[6] = H1-HeLa cells, HRV16 MOI 0.25, 4 days, Celltiter-Glo
[7] = H1-HeLa cells, HRV1B MOI 0.5, 4 days, Celltiter-Glo

| Compound | EC50 [1] | EC50 [2, 5] | EC50 [3, 6] | EC50 [4, 7] | EC50 ([2]; HRV14, H1-HeLa) | EC50 ([3]; HRV16, H1-HeLa) | EC50 ([4]; HRV1B, H1-HeLa) |
| --- | --- | --- | --- | --- | --- | --- | --- |
| CC(C)C(=O)Nc1ncnn2c([C@@H]3O[C@](C#N)(CO)[C@@H](O)[C@H]3O)ccc12 [Compound 30, N-(7-((2S,3R,4S,5R)-5-cyano-3,4-dihydroxy-5-(hydroxymethyl)tetrahydrofuran-2-yl)pyrrolo[2,1-f][1,2,4]triazin-4-yl)isobutyramide] | > 50 µM | 36.2 µM | 50 µM | 27.5 µM |  |  |  |
| CCCC(=O)OC[C@@]1(C#N)O[C@@H](c2ccc3c(N)ncnn23)[C@H](O)[C@@H]1O [Compound 6, ((2R,3S,4R,5S)-5-(4-aminopyrrolo[2,1-f][1,2,4]triazin-7-yl)-2-cyano-3,4-dihydroxytetrahydrofuran-2-yl)methyl butyrate] | 16.8 µM | 7.86 µM | 8.23 µM | 4.11 µM |  |  |  |
| N#C[C@]1(COC(=O)CC2CCC2)O[C@@H](c2ccc3c(N)ncnn23)[C@H](O)[C@@H]1O [Compound 16, ((2R,3S,4R,5S)-5-(4-aminopyrrolo[2,1-f][1,2,4]triazin-7-yl)-2-cyano-3,4-dihydroxytetrahydrofuran-2-yl)methyl 2-cyclobutylacetate] | 18.3 µM | 6.99 µM | 7.15 µM | 3.14 µM |  |  |  |
| CC(C)(C)C(=O)OC[C@@]1(C#N)O[C@@H](c2ccc3c(N)ncnn23)[C@H](O)[C@@H]1O [Compound 10, ((2R,3S,4R,5S)-5-(4-aminopyrrolo[2,1-f][1,2,4]triazin-7-yl)-2-cyano-3,4-dihydroxytetrahydrofuran-2-yl)methyl pivalate] | 21.8 µM | 10.9 µM | 14.3 µM | 9.77 µM |  |  |  |
| N#C[C@]1(COC(=O)Cc2ccccc2)O[C@@H](c2ccc3c(N)ncnn23)[C@H](O)[C@@H]1O [Compound 38, ((2R,3S,4R,5S)-5-(4-aminopyrrolo[2,1-f][1,2,4]triazin-7-yl)-2-cyano-3,4-dihydroxytetrahydrofuran-2-yl)methyl 2-phenylacetate] | 18.9 µM |  |  |  | 6.25 µM | 8.44 µM | 3.12 µM |
| CCC(=O)OC[C@@]1(C#N)O[C@@H](c2ccc3c(N)ncnn23)[C@H](O)[C@@H]1O [Compound 5, ((2R,3S,4R,5S)-5-(4-aminopyrrolo[2,1-f][1,2,4]triazin-7-yl)-2-cyano-3,4-dihydroxytetrahydrofuran-2-yl)methyl propionate] | 20 µM | 10.5 µM | 9.84 µM | 8.49 µM |  |  |  |
| CCC(CC)C(=O)Nc1ncnn2c([C@@H]3O[C@](C#N)(COC(=O)C(CC)CC)[C@@H](O)[C@H]3O)ccc12 [Compound 11, ((2R,3S,4R,5S)-2-cyano-5-(4-(2-ethylbutanamido)pyrrolo[2,1-f][1,2,4]triazin-7-yl)-3,4-dihydroxytetrahydrofuran-2-yl)methyl 2-ethylbutanoate] | 41.5 µM | 50 µM | 50 µM | 50 µM |  |  |  |
| CC(C)C(=O)O[C@H]1[C@H](c2ccc3c(N)ncnn23)O[C@](C#N)(COC(=O)c2ccccc2)[C@H]1O [Compound 22, ((2R,3S,4R,5S)-5-(4-aminopyrrolo[2,1-f][1,2,4]triazin-7-yl)-2-cyano-3-hydroxy-4-(isobutyryloxy)tetrahydrofuran-2-yl)methyl benzoate] | 32.1 µM | 15.9 µM | 33.1 µM | 12.8 µM |  |  |  |
| N#C[C@]1(COC(=O)C2CC3(CCC3)C2)O[C@@H](c2ccc3c(N)ncnn23)[C@H](O)[C@@H]1O [Compound 32, ((2R,3S,4R,5S)-5-(4-aminopyrrolo[2,1-f][1,2,4]triazin-7-yl)-2-cyano-3,4-dihydroxytetrahydrofuran-2-yl)methyl spiro[3.3]heptane-2-carboxylate] | 16.4 µM | 5.14 µM | 4.56 µM | 3.18 µM |  |  |  |
| CC(C)CC(=O)OC[C@@]1(C#N)O[C@@H](c2ccc3c(N)ncnn23)[C@H](O)[C@@H]1O [Compound 3, ((2R,3S,4R,5S)-5-(4-aminopyrrolo[2,1-f][1,2,4]triazin-7-yl)-2-cyano-3,4-dihydroxytetrahydrofuran-2-yl)methyl 3-methylbutanoate] | 26.4 µM | 9.33 µM | 13.2 µM | 8.84 µM |  |  |  |
| CC(C)[C@H](N)C(=O)OC[C@@]1(C#N)O[C@@H](c2ccc3c(N)ncnn23)[C@H](O)[C@@H]1O [Compound 12, ((2R,3S,4R,5S)-5-(4-aminopyrrolo[2,1-f][1,2,4]triazin-7-yl)-2-cyano-3,4-dihydroxytetrahydrofuran-2-yl)methyl L-valinate] | 19.2 µM | 6 µM | 8.82 µM | 6.5 µM |  |  |  |
| N#C[C@]1(COC(=O)C2CC2)O[C@@H](c2ccc3c(N)ncnn23)[C@H](O)[C@@H]1O [Compound 7, ((2R,3S,4R,5S)-5-(4-aminopyrrolo[2,1-f][1,2,4]triazin-7-yl)-2-cyano-3,4-dihydroxytetrahydrofuran-2-yl)methyl cyclopropanecarboxylate] | 50 µM | 27.1 µM | 30.7 µM | 11.4 µM |  |  |  |
